Columns and labels:
Assay in all cases: In vitro MMP inhibition, IC50 determination (fluorogenic substrate I)
Type in all cases: biochemical
[1] = biological target: T1, Human recombinant MMP-1 (Homo sapiens, UniProt P03956)
T1 construct: made in house; host or cells: MMP-1-transfected HT-1080 cells (spent media)
T1 sequence (P03956 100-469): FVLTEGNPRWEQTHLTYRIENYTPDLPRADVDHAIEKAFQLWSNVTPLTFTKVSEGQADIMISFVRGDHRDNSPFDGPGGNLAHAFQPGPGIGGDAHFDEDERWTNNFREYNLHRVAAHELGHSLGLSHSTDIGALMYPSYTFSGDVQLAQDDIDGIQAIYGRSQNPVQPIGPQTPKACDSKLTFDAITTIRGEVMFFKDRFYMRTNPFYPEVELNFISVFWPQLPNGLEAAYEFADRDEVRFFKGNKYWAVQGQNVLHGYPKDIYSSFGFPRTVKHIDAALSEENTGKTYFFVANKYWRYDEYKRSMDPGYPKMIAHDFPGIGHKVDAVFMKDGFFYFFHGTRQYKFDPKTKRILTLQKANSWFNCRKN
Method: (§1) Several hydroxamates and salts thereof were analyzed in in vitro assays to determine their ability to inhibit the MMP cleavage of peptide substrates. Inhibition (Ki) and IC50 constants were calculated from the assayed hydroxamate-MMP interactions.
(§2) Human recombinant MMP-1, MMP-2, MMP-9, MMP-13, and MMP-14 were used in this assay. All enzymes were prepared in Assignee's laboratories following usual laboratory procedures. Protocols for the preparation and use of these enzymes are available in the scientific literature. See, e.g., Enzyme Nomenclature (Academic Press, San Diego, Calif., 1992) (and the citations therein). See also, Frije et al., J. Biol. Chem., 26(24), 16766-73 (1994).
The MMP-1 proenzyme was purified from the spent media of MMP-1-transfected HT-1080 cells provided by Dr. Harold Welgus of Washington University (St. Louis, Mo.). The protein was purified on a zinc chelating column.
(§3) All MMPs were activated using 4-aminophenylmercuric acetate (“APMA”, Sigma Chemical, St. Louis, Mo.) or trypsin. MMP-9 also was activated using human recombinant MMP-3 (purified in Assignee's laboratory following standard cloning and purification techniques).
(§4) Two fluorogenic, methoxycoumarin-containing polypeptide substrates were used in the MMP inhibition assays:
(§5) MCA-ProLeuGlyLeuDpaAlaArgNH2 (I)
(§6) Here, “Dpa” is 3-(2,4-dinitrophenyl)-L-2,3-diaminopropionyl group, and “MCA” is 7-methoxycoumarin-4-yl acetyl. Substrate (I) was purchased from Baychem (Redwood City, Calif.), and substrate II was prepared Assignee's laboratory. Substrate I was used in the IC50 determination assays, while substrate II was used in the Ki determination assays. In the absence of MMP inhibitory activity, either substrate is cleaved at the Gly-Leu peptide bond. This cleavage separates the highly fluorogenic peptide from the 2,4-dinitrophenyl quencher, thus resulting in increase of fluorescent intensity.
(§7) The stock solutions of the assayed hydroxamates (or salts thereof) were prepared in 1% dimethyl sulfoxide (DMSO). These stock solutions were diluted in Buffer A (100 mM Tris-HCl, 100 mM NaCl, 10 mM CaCl2, 0.05% polyoxyethylene 23 lauryl ether, pH 7.5) to obtain solutions with different hydroxamate concentrations, i.e., assay solutions with different concentrations of the assayed MMP inhibitory compound. The experiment controls contained the same amount of Buffer A/DMSO as the assayed sample, but contained no hydroxamate (or salt thereof).
(§8) The assays from which the IC50 determinations were made were performed as follows. The MMPs were activated with either trypsin or APMA (4-aminophenylmercuric acetate, Sigma Chemical, St. Louis, Mo.). The assayed hydroxamate samples were, incubated in Microfluorrm White Plates (Dynatech, Chantilly, VA) and analyzed on a Perkin Elmer L550 plate reader (Norwalk, Conn.). The excitation wavelength was 328 nm, and the emission wavelength—415 nm. All samples (assayed hydroxamates and controls) were incubated in separate plates at room temperature in the presence of 4 μM of MMP substrate (I). As stated in the previous paragraph, samples containing varying concentrations of the same assayed hydroxamate were prepared. Inhibition was measured as a reduction in fluorescent intensity as a function of MMP inhibitor concentration.

[2] = biological target: T2, Human recombinant MMP-2 (Homo sapiens, UniProt P08253)
T2 construct: made in house; host or cells: MMP-2-transfected p2AHT2 cells
T2 sequence (P08253 110-660): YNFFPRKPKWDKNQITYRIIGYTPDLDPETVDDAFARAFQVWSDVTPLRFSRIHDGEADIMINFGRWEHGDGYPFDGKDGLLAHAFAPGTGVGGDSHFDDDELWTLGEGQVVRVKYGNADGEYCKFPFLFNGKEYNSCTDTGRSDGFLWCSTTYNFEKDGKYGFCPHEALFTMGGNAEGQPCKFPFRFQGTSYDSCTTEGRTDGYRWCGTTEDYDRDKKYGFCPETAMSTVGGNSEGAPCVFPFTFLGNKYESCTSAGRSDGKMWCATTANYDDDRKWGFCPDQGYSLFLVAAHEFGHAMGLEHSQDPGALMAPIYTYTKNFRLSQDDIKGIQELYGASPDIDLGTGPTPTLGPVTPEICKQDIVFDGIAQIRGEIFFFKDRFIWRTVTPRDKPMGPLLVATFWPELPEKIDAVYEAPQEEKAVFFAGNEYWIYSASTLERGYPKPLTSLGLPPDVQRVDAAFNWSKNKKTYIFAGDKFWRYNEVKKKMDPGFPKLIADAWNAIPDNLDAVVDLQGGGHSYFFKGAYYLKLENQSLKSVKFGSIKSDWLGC
Outline: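 IC50 was derived from the concentration-dependent fall in fluorescence (ex 328, em 415 nm) on Gly-Leu cleavage of 4 μM MCA/Dpa-quenched substrate I. Assays ran at room temperature in pH 7.5 Tris/NaCl/CaCl2/Brij buffer with MMP-2 activated by trypsin or APMA; inhibitors were diluted from 1% DMSO stocks.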

[3] = biological target: T3, Human recombinant MMP-9 (Homo sapiens, UniProt P14780)
T3 construct: made in house; host or cells: MMP-9-transfected HT1080 cells (spent media)
T3 sequence (P14780 107-707 limits assumed): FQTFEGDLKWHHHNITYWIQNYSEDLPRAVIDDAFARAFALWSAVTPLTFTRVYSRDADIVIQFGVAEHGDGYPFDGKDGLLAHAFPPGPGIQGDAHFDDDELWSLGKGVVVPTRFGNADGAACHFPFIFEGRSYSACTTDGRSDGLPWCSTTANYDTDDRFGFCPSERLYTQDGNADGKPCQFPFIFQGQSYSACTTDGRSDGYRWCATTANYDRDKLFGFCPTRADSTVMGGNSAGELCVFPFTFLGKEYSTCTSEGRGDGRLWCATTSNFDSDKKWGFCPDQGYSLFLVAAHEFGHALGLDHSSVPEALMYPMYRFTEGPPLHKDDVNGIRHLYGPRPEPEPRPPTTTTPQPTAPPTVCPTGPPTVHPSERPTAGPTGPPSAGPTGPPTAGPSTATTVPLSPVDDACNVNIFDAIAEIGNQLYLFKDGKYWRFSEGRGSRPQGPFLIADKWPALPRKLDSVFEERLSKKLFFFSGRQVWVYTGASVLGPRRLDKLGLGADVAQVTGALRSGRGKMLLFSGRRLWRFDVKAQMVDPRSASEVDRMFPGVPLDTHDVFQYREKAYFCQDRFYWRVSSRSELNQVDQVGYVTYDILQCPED
Method: as §1, §2
The MMP-9 proenzyme was purified by gelatin Sepharose chromatography from spent media of MMP-9-transfected HT1080 cells provided by Dr. Howard Welgus of Washington University (St. Louis, Mo.).
as §3, §4, §5, §6, §7, §8

[4] = biological target: T4, Human recombinant MMP-13 (Homo sapiens, UniProt P45452)
T4 construct: made in house; host or cells: baculovirus / insect cells
Outline: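 Fluorescence at 415 nm (excitation 328 nm) reports Gly-Leu cleavage of 4 μM quenched methoxycoumarin peptide substrate I. Human recombinant MMP-13, activated by trypsin or APMA, was incubated at room temperature with varied inhibitor concentrations in pH 7.5 Tris/NaCl/CaCl2 buffer; IC50 derived from reduced fluorescence.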

[5] = biological target: T5, Human recombinant MMP-14 (Homo sapiens, UniProt P50281)
T5 construct: The catalytic domain enzyme was expressed in E. coli inclusion bodies, solubilized in urea; made in house
Method: as §1, §2
The MMP-14 full length cDNA was provided by Dr. Gregory Goldberg of Washington University (St. Louis, Mo.). The catalytic domain enzyme was expressed in E. coli inclusion bodies, solubilized in urea, purified on a preparative […] reverse phase HPLC column, and then refolded in the presence of zinc acetate and purified for use.
as §3, §4, §5, §6, §7, §8

[6] = value outside parentheses (Ki in parenthesis)

| IC50 ([1]; value outside parentheses) [µM] | IC50 ([2]; value outside parentheses) [µM] | IC50 ([3]; value outside parentheses) [µM] | IC50 ([4]; value outside parentheses) [µM] | IC50 ([5]; value outside parentheses) [µM] | Compound | other results |
| --- | --- | --- | --- | --- | --- | --- |
| > 10 | 0.0227 | 0.16 | 0.001 | 5.64 | O=C(NO)C1(S(=O)(=O)c2ccc(OCCSc3nc4ccc(Cl)cc4o3)cc2)CCOCC1 [Example 502] | – |
| > 10 | 0.17 | 0.422 | 0.00218 | > 10 | O=C(NO)C1(S(=O)(=O)c2ccc(OCCCOCc3ccccn3)cc2)CCOCC1 [Example 519] | – |

Second part, the compound before the results:

| Compound | IC50 ([1]; value outside parentheses) [µM] | IC50 ([2]; value outside parentheses) [µM] | IC50 ([3]; value outside parentheses) [µM] | IC50 ([4]; value outside parentheses) [µM] | IC50 ([5]; value outside parentheses) [µM] | other results |
| --- | --- | --- | --- | --- | --- | --- |
| O=C(NO)C1(S(=O)(=O)c2ccc(OCC3Cc4cc(Oc5ccccc5)ccc4O3)cc2)CCOCC1 (stereo not shown) [Example 664] | > 10 | 0.0198 | 0.43 | 0.00102 | 2.65 | – |
| O=C(NO)C1(S(=O)(=O)c2ccc(OCCCc3cccc(C4CCCCN4)c3)cc2)CCN(C2CC2)CC1 (stereo not shown) [Example 609] | > 10 | 0.58 | 6.89 | 0.0077 | > 10 | – |
| O=C(NCCCOc1ccc(S(=O)(=O)C2(C(=O)NO)CCN(C3CC3)CC2)cc1)c1ccc(OC(F)(F)F)cc1 [Example 208] | – | – | – | – | – | IC50 ([1]; value outside parenthesis): > 10 µM; IC50 ([2]; value outside parenthesis): 0.23 µM; IC50 ([3]; value outside parenthesis): 6.59 µM; IC50 ([4]; value outside parenthesis): 0.0006 µM; IC50 ([5]; value outside parenthesis): > 10 µM |
| O=C(NO)C1(S(=O)(=O)c2ccc(OCCCc3nnc(Cl)o3)cc2)CCOCC1 [Example 244] | – | – | – | – | – | IC50 ([1]; value outside parenthesis): 3.25 µM; IC50 ([2]; value outside parenthesis): 0.0188 µM; IC50 ([3]; value outside parenthesis): 0.108 µM; IC50 ([4]; value outside parenthesis): 0.0007 µM; IC50 ([5]; value outside parenthesis): > 10 µM |
| O=C(CCCOc1ccc(S(=O)(=O)C2(C(=O)NO)CCOCC2)cc1)Cc1ccc(Cl)cc1 [Example 302] | – | – | – | – | – | IC50 [1, 6]: 2.73 µM; IC50 [2, 6]: 0.0002 µM; IC50 [3, 6]: 0.0029 µM; IC50 [4, 6]: 0.0001 µM; IC50 [5, 6]: 0.0949 µM |
| O=C(NO)C1(S(=O)(=O)c2ccc(OCCOCc3ccccn3)cc2)CCOCC1 [Example 515] | > 10 | 0.0898 | 0.154 | 0.0242 | > 10 | – |
| COCCN1CCC(C(=O)NO)(S(=O)(=O)c2ccc(OCCCSc3nc4ccccc4s3)cc2)CC1 [Example 615] | > 10 | 0.0011 | 0.0036 | 0.0004 | 6.7 | – |
| O=C(NO)C1(S(=O)(=O)c2ccc(OCCCOc3cccc(C(F)(F)F)c3)cc2)CCN(C2CC2)CC1 [Example 443] | – | – | – | – | – | IC50 [1, 6]: > 10 µM; IC50 [2, 6]: 0.025 µM; IC50 [3, 6]: 0.375 µM; IC50 [4, 6]: 0.0035 µM; IC50 [5, 6]: 2.43 µM |
| CCCC(=O)C(C)CCOc1ccc(S(=O)(=O)C2(C(=O)NO)CCOCC2)cc1 (stereo not shown) [Example 295] | – | – | – | – | – | IC50 [1, 6]: > 10 µM; IC50 [2, 6]: 0.0156 µM; IC50 [3, 6]: 0.172 µM; IC50 [4, 6]: 0.0026 µM; IC50 [5, 6]: > 10 µM |

Source: patent US20040024024A1, “Aromatic sulfone hydroxamates and their use as protease inhibitors” (priority 2001, published 2004)
